For 30 compounds, IC50 results are on record in patent US12624034B2, “Non-covalent modifiers of AKT1 and uses thereof” (Terremoto Biosciences, Inc., priority 2023, dated 2026).

One test deals with T1, AKT1 WT (Homo sapiens, UniProt P31749).
T1 construct: expressed in transfected cells; host or cells: HEK293
Nature of the test: Live cell AKT1 WT target engagement by NanoBRET competitive probe displacement in HEK293 cells. In kind it is binding. The conditions noted are these: 2 h at 37° C.

The target in the next test is T2, AKT2 (Homo sapiens, UniProt P31751).
T2 construct: expressed in transfected cells; host or cells: HEK293
T2 sequence (P31751 whole entry): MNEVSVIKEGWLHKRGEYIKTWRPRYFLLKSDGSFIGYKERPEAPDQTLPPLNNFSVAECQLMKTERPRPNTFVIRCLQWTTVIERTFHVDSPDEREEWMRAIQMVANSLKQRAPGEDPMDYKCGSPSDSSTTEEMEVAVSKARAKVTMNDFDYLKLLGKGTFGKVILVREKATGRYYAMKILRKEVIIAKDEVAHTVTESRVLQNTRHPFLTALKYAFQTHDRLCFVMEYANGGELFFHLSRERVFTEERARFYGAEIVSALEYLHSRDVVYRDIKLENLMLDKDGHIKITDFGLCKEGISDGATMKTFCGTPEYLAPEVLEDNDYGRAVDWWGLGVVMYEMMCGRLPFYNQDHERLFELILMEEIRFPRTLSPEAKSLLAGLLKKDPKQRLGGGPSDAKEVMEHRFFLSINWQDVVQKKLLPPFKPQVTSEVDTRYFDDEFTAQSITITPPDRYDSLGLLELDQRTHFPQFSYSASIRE
As to the kind of experiment: Live cell AKT2 target engagement by NanoBRET competitive probe displacement in HEK293 cells. In kind it is binding. The conditions noted are these: 2 h at 37° C., read-out: AKT2 IC50.

The mark [1] stands for this setting: NanoBRET live cell target engagement, HEK293 cells, read-out: AKT1 WT IC50.
Where [2] appears, read: NanoBRET live cell target engagement, HEK293 cells.
[3] abbreviates: NanoBRET competitive probe displacement, live HEK293 cells, read-out: AKT1 WT IC50.
[4] abbreviates: NanoBRET competitive probe displacement, live HEK293 cells.

Molecules are shown by their SMILES. Read-outs that look alike come from different tables or passages of the source.

T1 sequence (P31749 whole entry): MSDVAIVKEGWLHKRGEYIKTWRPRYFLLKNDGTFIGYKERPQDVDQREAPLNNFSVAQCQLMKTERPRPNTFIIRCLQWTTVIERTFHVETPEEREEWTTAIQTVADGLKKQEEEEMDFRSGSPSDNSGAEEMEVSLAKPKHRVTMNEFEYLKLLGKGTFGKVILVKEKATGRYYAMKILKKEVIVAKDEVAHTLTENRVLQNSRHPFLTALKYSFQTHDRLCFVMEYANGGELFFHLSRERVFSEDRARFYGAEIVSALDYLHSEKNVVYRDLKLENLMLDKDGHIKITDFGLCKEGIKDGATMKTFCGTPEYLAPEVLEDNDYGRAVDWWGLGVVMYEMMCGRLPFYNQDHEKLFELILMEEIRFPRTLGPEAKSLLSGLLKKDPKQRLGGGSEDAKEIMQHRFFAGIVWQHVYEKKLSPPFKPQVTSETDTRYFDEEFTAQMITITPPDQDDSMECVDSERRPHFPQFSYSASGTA

Consider `CC(C)NC(=O)N[C@H]1CCc2cc(-n3c(-c4cccnc4N)nc4ccc(-n5cccn5)nc43)ccc21` [Compound 134, (S)-1-(5-(2-(2-aminopyridin-3-yl)-5-(1H-pyrazol-1-yl)-3H-imidazo[4,5-b]pyridin-3-yl)-2,3-dihydro-1H-inden-1-yl)-3-isopropylurea], for which the half-inhibitory concentration (IC50) on AKT1 WT (setting [1]) is over 1000 nM; at AKT2 (setting [2]), over 10000 nM.

On to `Cc1cc(C(F)F)ncc1C(=O)N[C@H]1CCc2cc(-n3c(-c4cccnc4N)nc4ccc(-n5nccn5)nc43)ccc21` [Compound 397], for which the results for the IC50 at AKT1 WT (setting [3]) and on AKT2 (setting [4]) were 16.5 nM and 1440 nM, respectively.

In the case of `COCCOc1cc(C(=O)N[C@H]2CCc3cc(-n4c(-c5cccnc5N)nc5ccc(-n6cccn6)nc54)ccc32)ccn1` [Compound 203], the IC50 at AKT1 WT (setting [1]) was 10.5 nM; at AKT2 (setting [2]), 99.6 nM.

In the case of `Nc1ncccc1-c1nc2ccc(-n3cccn3)nc2n1-c1ccc2c(c1)CC[C@@H]2NC1CCN(C(=O)C2CC2)CC1F` (stereo partly drawn) [Compound 445], the IC50 on AKT1 WT (setting [3]) was found to be 20.2 nM; on AKT2 (setting [4]), 980 nM.

`N#Cc1cc(-n2nccn2)nc2c1nc(-c1cccnc1N)n2-c1ccc2c(c1)CC[C@@H]2NC(=O)c1ccc(C(F)F)nc1` [Compound 548]: the IC50 at AKT1 WT (setting [3]) was determined as 27.4 nM; on AKT2 (setting [4]), 4080 nM.

Take `Nc1ncccc1-c1nc2ccc(-n3ccc(OC4CC4)n3)nc2n1-c1ccc2c(c1)CC[C@@H]2NC1CCN(C(=O)C2CC2)CC1` [Compound 497]: the IC50 on AKT1 WT (setting [3]) was 18.9 nM; at AKT2 (setting [4]), 1280 nM.

In the case of `Nc1ncccc1-c1nc2ccc(-n3cccn3)nc2n1-c1ccc2c(c1)CC[C@@H]2NC(=O)c1ccnc(C#Cc2ccccc2)c1` [Compound 209], the IC50 at AKT1 WT (setting [1]) is 37.7 nM; on AKT2 (setting [2]), 316 nM.

Take `C#Cc1ccc2nc(-c3cccnc3N)n(-c3ccc4c(c3)CC[C@@H]4NC(=O)c3ccc(C(F)F)nc3)c2n1` [Compound 404]: the values for the IC50 on AKT1 WT (setting [3]) and at AKT2 (setting [4]) were 33.7 nM and 2820 nM, respectively.

Take `Nc1ncccc1-c1nc2ccc(-n3cccn3)nc2n1-c1ccc2c(c1)CC[C@@H]2NC(=O)CC1CCC(=O)N1` (stereo partly drawn) [Compound 47, N—((S)-5-(2-(2-aminopyridin-3-yl)-5-(1H-pyrazol-1-yl)-3H-imidazo[4,5-b]pyridin-3-yl)-2,3-dihydro-1H-inden-1-yl)-2-(5-oxopyrrolidin-2-yl)acetamide]: the IC50 is over 1000 nM on AKT1 WT (setting [1]) and over 10000 nM on AKT2 (setting [2]).

As to `CNS(=O)(=O)c1ccc(C(=O)N[C@H]2CCc3cc(-n4c(-c5cccnc5N)nc5ccc(-n6cccn6)nc54)ccc32)cc1` [Compound 308], the figures for the IC50 on AKT1 WT (setting [1]) and on AKT2 (setting [2]) were 15.1 nM and 296 nM, respectively.

Consider `Nc1ncccc1-c1nc2ccc(-n3cccn3)nc2n1-c1ccc2c(c1)CC[C@@H]2n1cnnc1` [Compound 248, (S)-3-(3-(1-(4H-1,2,4-triazol-4-yl)-2,3-dihydro-1H-inden-5-yl)-5-(1H-pyrazol-1-yl)-3H-imidazo[4,5-b]pyridin-2-yl)pyridin-2-amine], for which the IC50 at AKT1 WT (setting [1]) turned out to be 20.2 nM; on AKT2 (setting [2]), 107 nM.

With `Nc1ncccc1-c1nc2ccc(-n3cccn3)nc2n1-c1ccc2c(c1)CC[C@@H]2NC1CCN(C(=O)[C@H]2C[C@H]2F)CC1` [Compound 478], the IC50 came out at 126 nM on AKT1 WT (setting [3]) and 3170 nM on AKT2 (setting [4]).

Consider `Fc1ccccc1-c1nc2ccc(-n3cccn3)nc2n1-c1ccc2c(c1)CC[C@@H]2n1cnnc1` [Compound 529], for which the IC50 amounted to 8.2 nM at AKT1 WT (setting [3]) and 621 nM at AKT2 (setting [4]).

In the case of `Cc1cnc(C(=O)N[C@H]2CCc3cc(-n4c(-c5cccnc5N)nc5ccc(-n6cccn6)nc54)ccc32)c(C)n1` [Compound 207], the values for the IC50 on AKT1 WT (setting [1]) and on AKT2 (setting [2]) were 151 nM and 2520 nM, respectively.

On to `Nc1ncccc1-c1nc2ccc(-n3ccc(N4CC5CC(C4)O5)n3)nc2n1-c1ccc2c(c1)CC(F)[C@@H]2NC1CCN(C(=O)C2CC2)CC1` (stereo partly drawn) [Compound 552], for which the values for the IC50 at AKT1 WT (setting [3]) and on AKT2 (setting [4]) were 9.18 nM and 166 nM, respectively.

For `Cn1ncc(-c2ccc3nc(-c4cccnc4N)n(-c4ccc5c(c4)CC[C@@H]5n4ccnn4)c3n2)n1` [Compound 247], the IC50 on AKT1 WT (setting [1]) came out at 60.4 nM; at AKT2 (setting [2]) it was 1570 nM.

For the compound `COc1cc(-n2cccn2)nc2c1nc(-c1cccnc1N)n2-c1ccc2c(c1)CC[C@@H]2NC(=O)c1cccnc1C` [Compound 124], the IC50 on AKT1 WT (setting [1]) was determined as 13.9 nM; at AKT2 (setting [2]), 54.8 nM.

Regarding `Nc1ncccc1-c1nc2ccc(-n3cccn3)nc2n1-c1ccc2c(c1)CC[C@@H]2NC1CCN(c2cccnc2)C1` (stereo partly drawn) [Compound 471], the IC50 worked out at 39 nM at AKT1 WT (setting [3]) and 1040 nM on AKT2 (setting [4]).

For `Nc1ncccc1-c1nc2ccc(-n3ccc(N4CCOCC4)n3)nc2n1-c1ccc2c(c1)CC(F)[C@@H]2NC1CCN(C(=O)C2CC2)CC1` (stereo partly drawn) [Compound 544], the IC50 turned out to be 6.24 nM at AKT1 WT (setting [3]) and 130 nM at AKT2 (setting [4]).

For the compound `Cc1ccc(C(=O)N[C@H]2CCc3cc(-n4c(-c5cccnc5N)nc5ccc(-n6cnc(C)n6)nc54)ccc32)cn1` [Compound 417, (S)—N-(5-(2-(2-aminopyridin-3-yl)-5-(3-methyl-1H-1,2,4-triazol-1-yl)-3H-imidazo[4,5-b]pyridin-3-yl)-2,3-dihydro-1H-inden-1-yl)-6-methylnicotinamide], the IC50 at AKT1 WT (setting [3]) worked out at 19.6 nM; at AKT2 (setting [4]) it was 561 nM.

Take `Cc1nccnc1C(=O)N[C@H]1CCc2cc(-n3c(-c4cccnc4N)nc4ccc(-c5cnn(C)n5)nc43)ccc21` [Compound 271]: the figures for the IC50 at AKT1 WT (setting [1]) and on AKT2 (setting [2]) were 285 nM and over 10000 nM, respectively.

Consider `Nc1ncccc1-c1nc2ccc(-n3cccn3)nc2n1-c1ccc2c(c1)CC(F)[C@@H]2NC1CCc2cnccc21` (stereo partly drawn) [Compound 481], for which the figures for the IC50 at AKT1 WT (setting [3]) and at AKT2 (setting [4]) were 13.9 nM and 278 nM, respectively.

Take `Nc1ncccc1-c1nc2ccc(-n3cccn3)nc2n1-c1ccc2c(c1)CC[C@@H]2NC1CC2(CCCN2c2ccccn2)C1` (stereo partly drawn) [Compound 465]: the IC50 is over 1000 nM on AKT1 WT (setting [3]) and over 10000 nM at AKT2 (setting [4]).

For `Cc1cc(C(=O)N[C@H]2CCc3cc(-n4c(-c5cccnc5N)nc5ccc(-n6cccn6)nc54)ccc32)cc(C)n1` [Compound 76], the IC50 worked out at 6.86 nM at AKT1 WT (AKT1 WT IC50 (nM), NanoBRET live cell target engagement, HEK293 cells) and 39.4 nM on AKT2 (setting [2]).

As to `CN1CC(C#Cc2ccc3nc(-c4cccnc4N)n(-c4ccc5c(c4)CC[C@@H]5NC(=O)c4ccc(C(F)F)nc4)c3n2)C1` [Compound 411, (S)—N-(5-(2-(2-aminopyridin-3-yl)-5-((1-methylazetidin-3-yl)ethynyl)-3H-imidazo[4,5-b]pyridin-3-yl)-2,3-dihydro-1H-inden-1-yl)-6-(difluoromethyl)nicotinamide], the IC50 on AKT1 WT (setting [3]) was 976 nM; at AKT2 (setting [4]), over 10000 nM.

Take `Nc1ncccc1-c1nc2ccc(-n3cccn3)nc2n1-c1ccc2c(c1)CC[C@@H]2NC(=O)c1cc2n(n1)CCO2` [Compound 242]: the figures for the IC50 on AKT1 WT (setting [1]) and on AKT2 (setting [2]) were 70 nM and 3220 nM, respectively.

As to `Nc1ncccc1-c1nc2ccc(C#CC3CC3)nc2n1-c1ccc2c(c1)CC[C@@H]2NC(=O)c1ccc(C(F)F)nc1` [Compound 406], the IC50 came to 20.4 nM at AKT1 WT (setting [3]) and 903 nM on AKT2 (setting [4]).

In the case of `Nc1ncccc1-c1nc2ccc(-n3cccn3)nc2n1-c1ccc2c(c1)CC[C@@H]2n1cc(C2CCO2)nn1` (stereo partly drawn) [Compound 353], the results for the IC50 at AKT1 WT (setting [1]) and on AKT2 (setting [2]) were 25 nM and 1270 nM, respectively.

Regarding `Nc1ncccc1-c1nc2ccc(-n3cccn3)nc2n1-c1ccc2c(c1)CC[C@@H]2NC(=O)c1ccc(O)nc1` [Compound 297], the concentration for half-maximal inhibition (IC50) at AKT1 WT (setting [1]) came out at 163 nM; at AKT2 (setting [2]) it was 4220 nM.

As for `Cc1ccc(C(=O)N[C@H]2CC(F)(F)c3cc(-n4c(-c5cccnc5N)nc5ccc(-n6cccn6)nc54)ccc32)cn1` [Compound 299], the IC50 at AKT1 WT (setting [1]) is over 1000 nM; on AKT2 (setting [2]), over 10000 nM.
